Laboratory results: ChEMBL document CHEMBL1147745, “Targeting FtsZ for antituberculosis drug discovery: noncytotoxic taxanes as novel antituberculosis agents” (J Med Chem, 2006)
Converted amounts (≈) assume the structure as drawn. The source made the active and inactive calls. No cut-off for these calls is given here.

Experiments:
[1] = tested on: Mycobacterium tuberculosis; assay: Antimicrobial activity against Mycobacterium tuberculosis IMCJ946.K2; format: functional
A549 = assay: Cytotoxicity against human A549 cell line; format: functional, cell-based
MCF7 = assay: Cytotoxicity against human MCF7 cell line; format: functional, cell-based
[2] = tested on: Mycobacterium tuberculosis; assay: Antimicrobial activity against Mycobacterium tuberculosis H37Rv; format: functional
[3] = molecular target: T1, Cell division protein FtsZ (Mycobacterium tuberculosis) (UniProt P9WN95); assay: FtsZ inactivation in MTB cells at MIC; format: cell-based
T1 sequence (whole entry): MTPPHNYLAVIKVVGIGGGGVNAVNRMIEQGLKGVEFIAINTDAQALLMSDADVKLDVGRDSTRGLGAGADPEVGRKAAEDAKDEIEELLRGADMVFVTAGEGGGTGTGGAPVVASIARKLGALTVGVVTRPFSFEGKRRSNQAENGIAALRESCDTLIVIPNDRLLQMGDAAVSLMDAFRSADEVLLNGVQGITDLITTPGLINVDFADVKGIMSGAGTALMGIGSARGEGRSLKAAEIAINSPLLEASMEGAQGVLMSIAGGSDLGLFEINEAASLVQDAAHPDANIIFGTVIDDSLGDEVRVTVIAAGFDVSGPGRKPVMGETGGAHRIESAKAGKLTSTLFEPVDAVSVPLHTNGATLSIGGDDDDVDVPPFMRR

Compound: CCN(CC)CCC(=O)O[C@H]1C(=O)[C@@]2(C)[C@H]([C@H](OC(=O)c3ccccc3)[C@]3(O)C[C@H](OC(=O)/C=C/c4ccc5ccccc5c4)C(C)=C1C3(C)C)[C@]1(OC(C)=O)CO[C@@H]1C[C@@H]2O
- MIC99 [1]: 5 µM (≈ 4.26 µg/mL)
- IC50 (A549): 9.6 µM
- IC50 (MCF7): 3.9 µM
- MIC99 [2]: 10 µM (≈ 8.52 µg/mL)

Compound: CCCCCC(=O)O[C@H]1C(=O)[C@@]2(C)[C@H]([C@H](OC(=O)c3ccccc3)[C@]3(O)C[C@H](OC(=O)[C@H](O)[C@@H](NC(=O)c4ccccc4)c4ccccc4)C(C)=C1C3(C)C)[C@]1(OC(C)=O)CO[C@@H]1C[C@@H]2O
- MIC99 [1]: 1.25 µM (≈ 1.14 µg/mL)
- IC50 (A549): 0.65 µM
- IC50 (MCF7): 0.65 µM
- MIC99 [2]: 5 µM (≈ 4.55 µg/mL)

Compound: CC(=O)O[C@@]12CO[C@@H]1C[C@H](O)[C@@]1(C)C(=O)[C@H](O)C3=C(C)[C@@H](OC(=O)/C=C/c4cccc5ccccc45)C[C@@](O)([C@@H](OC(=O)c4ccccc4)[C@H]21)C3(C)C
- MIC99 [1]: 5 µM (≈ 3.62 µg/mL)
- IC50 (A549): 80 µM
- IC50 (MCF7): 5.4 µM
- MIC99 [2]: 5 µM (≈ 3.62 µg/mL)

Compound: COc1ccc(C(=O)O[C@H]2[C@@H]3[C@]4(OC(C)=O)CO[C@@H]4C[C@H](O)[C@@]3(C)C(=O)[C@H](O)C3=C(C)[C@@H](OC(=O)/C=C/c4ccc5ccccc5c4)C[C@]2(O)C3(C)C)cc1
- MIC99 [1]: 2.5 µM (≈ 1.89 µg/mL)
- IC50 (A549): 14 µM
- IC50 (MCF7): 7.6 µM
- MIC99 [2]: 5 µM (≈ 3.77 µg/mL)

Compound: COc1ccc2cc(/C=C/C(=O)O[C@H]3C[C@@]4(O)[C@@H](OC(=O)c5ccccc5)[C@@H]5[C@]6(OC(C)=O)CO[C@@H]6C[C@H](O)[C@@]5(C)C(=O)[C@H](O)C(=C3C)C4(C)C)ccc2c1
- MIC99 [1]: 5 µM (≈ 3.77 µg/mL)
- IC50 (A549): 5 µM
- IC50 (MCF7): 5.3 µM
- MIC99 [2]: 5 µM (≈ 3.77 µg/mL)

Compound: CC(=O)O[C@@]12CO[C@@H]1C[C@H](OC(=O)CN(C)C)[C@@]1(C)C(=O)[C@H](O)C3=C(C)[C@@H](OC(=O)/C=C/c4ccc5ccccc5c4)C[C@@](O)([C@@H](OC(=O)c4ccccc4)[C@H]21)C3(C)C
- MIC99 [1]: 5 µM (≈ 4.05 µg/mL)
- IC50 (A549): 4.3 µM
- IC50 (MCF7): > 20 µM
- MIC99 [2]: 20 µM (≈ 16.2 µg/mL)

Compound: CCN(CC)CCC(=O)O[C@H]1C[C@H]2OC[C@@]2(OC(C)=O)[C@H]2[C@H](OC(=O)c3ccccc3)[C@]3(O)C[C@H](OC(=O)/C=C/c4ccc5ccccc5c4)C(C)=C([C@@H](OC(C)=O)C(=O)[C@]12C)C3(C)C
- MIC99 [1]: 20 µM (≈ 17.9 µg/mL)
- IC50 (A549): 17 µM
- IC50 (MCF7): 9.4 µM
- MIC99 [2]: 10 µM (≈ 8.94 µg/mL)

Compound: CC(=O)O[C@H]1C(=O)[C@@]2(C)[C@H]([C@H](OC(=O)c3ccccc3)[C@]3(O)C[C@H](OC(=O)[C@H](O)[C@@H](NC(=O)c4ccccc4)c4ccccc4)C(C)=C1C3(C)C)[C@]1(OC(C)=O)CO[C@@H]1C[C@@H]2O [PACLITAXEL]
- MIC99 [1]: 40 µM (≈ 34.2 µg/mL)
- IC50 (A549): 0.028 µM
- IC50 (MCF7): 0.019 µM
- MIC99 [2]: 40 µM (≈ 34.2 µg/mL)

Compound: CC(=O)O[C@@]1([C@@H]2/C(C)=C(/O)C(=O)C3=C(C)[C@@H](OC(=O)/C=C/c4ccc(Sc5ccccc5)cc4)C[C@@](O)([C@H]2OC(=O)c2ccccc2)C3(C)C)CO[C@@H]1CCO
- MIC99 [1]: 1.25 µM (≈ 0.979 µg/mL)
- IC50 (A549): > 80 µM
- IC50 (MCF7): > 80 µM
- MIC99 [2]: 2.5 µM (≈ 1.96 µg/mL)

Compound: CC(=O)O[C@@]12CO[C@@H]1C[C@H](O)[C@@]1(C)C(=O)[C@H](O)C3=C(C)[C@@H](OC(=O)/C=C/c4ccc5ccccc5c4)C[C@@](O)([C@@H](OC(=O)c4ccccc4)[C@H]21)C3(C)C
- MIC99 [1]: 2.5 µM (≈ 1.81 µg/mL)
- IC50 (A549): 15.7 µM
- IC50 (MCF7): 4.5 µM
- MIC99 [2]: 5 µM (≈ 3.62 µg/mL)

Compound: CC(=O)O[C@@]12CO[C@@H]1C[C@H](O)[C@@]1(C)C(=O)[C@H](OC(=O)N(C)C)C3=C(C)[C@@H](OC(=O)/C=C/c4ccc5ccccc5c4)C[C@@](O)([C@@H](OC(=O)c4ccccc4)[C@H]21)C3(C)C
- Activity [3]: Active

Compound: CC(=O)O[C@@]12CO[C@@H]1C[C@H](O)[C@@]1(C)C(=O)[C@H](OC(=O)CN(C)C)C3=C(C)[C@@H](OC(=O)/C=C/c4ccc5ccccc5c4)C[C@@](O)([C@@H](OC(=O)c4ccccc4)[C@H]21)C3(C)C
- MIC99 [1]: 10 µM (≈ 8.1 µg/mL)
- IC50 (A549): 10.8 µM
- IC50 (MCF7): 7 µM
- MIC99 [2]: 10 µM (≈ 8.1 µg/mL)

Compound: CC(=O)O[C@@]12CO[C@@H]1C[C@H](O)[C@@]1(C)C(=O)[C@H](OC(=O)/C=C/c3ccc4ccccc4c3)C3=C(C)[C@@H](O)C[C@@](O)([C@@H](OC(=O)c4ccccc4)[C@H]21)C3(C)C
- MIC99 [1]: 10 µM (≈ 7.25 µg/mL)
- IC50 (MCF7): 14 µM
- MIC99 [2]: 20 µM (≈ 14.5 µg/mL)

Compound: CC(=O)O[C@@]12CO[C@@H]1C[C@H](O)[C@@]1(C)C(=O)[C@H](O)C3=C(C)[C@@H](OC(=O)/C=C/c4ccc(Sc5ccccc5)cc4)C[C@@](O)([C@@H](OC(=O)c4ccccc4)[C@H]21)C3(C)C
- MIC99 [1]: 2.5 µM (≈ 1.96 µg/mL)
- IC50 (A549): 4.5 µM
- IC50 (MCF7): 3.4 µM
- MIC99 [2]: 2.5 µM (≈ 1.96 µg/mL)

Compound: CC(=O)O[C@@]12CO[C@@H]1C[C@H](O)[C@@]1(C)C(=O)[C@H](O)C3=C(C)[C@@H](OC(=O)/C=C/c4ccc(Oc5ccccc5)cc4)C[C@@](O)([C@@H](OC(=O)c4ccccc4)[C@H]21)C3(C)C
- MIC99 [1]: 10 µM (≈ 7.67 µg/mL)
- IC50 (A549): 12.5 µM
- IC50 (MCF7): 9.3 µM
- MIC99 [2]: 10 µM (≈ 7.67 µg/mL)

Compound: COc1ccc2cc(/C=C/C(=O)O[C@H]3C[C@@]4(O)[C@@H](OC(=O)c5ccccc5)[C@H]([C@]5(OC(C)=O)CO[C@@H]5CCO)/C(C)=C(/O)C(=O)C(=C3C)C4(C)C)ccc2c1
- MIC99 [1]: 2.5 µM (≈ 1.89 µg/mL)
- IC50 (A549): > 80 µM
- IC50 (MCF7): > 80 µM
- MIC99 [2]: 2.5 µM (≈ 1.89 µg/mL)

Compound: CC(=O)O[C@@]1([C@@H]2/C(C)=C(/O)C(=O)C3=C(C)[C@@H](OC(=O)/C=C/c4ccc(Oc5ccccc5)cc4)C[C@@](O)([C@H]2OC(=O)c2ccccc2)C3(C)C)CO[C@@H]1CCO
- MIC99 [1]: 1.25 µM (≈ 0.959 µg/mL)
- IC50 (A549): > 80 µM
- IC50 (MCF7): > 80 µM
- MIC99 [2]: 2.5 µM (≈ 1.92 µg/mL)

Compound: CC(=O)O[C@@]1([C@@H]2/C(C)=C(/O)C(=O)C3=C(C)[C@@H](OC(=O)/C=C/c4ccc5ccccc5c4)C[C@@](O)([C@H]2OC(=O)c2ccccc2)C3(C)C)CO[C@@H]1CCO
- MIC99 [1]: 1.25 µM (≈ 0.906 µg/mL)
- IC50 (A549): > 80 µM
- IC50 (MCF7): > 80 µM
- MIC99 [2]: 2.5 µM (≈ 1.81 µg/mL)
- Activity [3]: Active
